Data set [1] concerns LN229 gliobastoma cells MGMT+/MMR−. As to the kind of experiment: Anti-cancer assay, isogenic LN229 cells, nuclei count (Example 43). It counts as cell-based. The settings on record: Homo sapiens, LN-229; LN229 MGMT+/MMR−; 120 hours; read-out: MGMT+ MMR− Activity. The text has this:
Cytotoxicity of the compounds may be measured in short-term cell viability assays against four isogenic LN229 glioblastoma cell lines engineered to be proficient or deficient in MGMT and/or MMR activity by using short hairpin RNAs (shRNAs) targeting MSH2. This approach allows for determination of the relationship between MGMT status, MMR status, and compound activity. LN229 cells are maintained in Dulbecco's Modified Eagle Medium (DMEM) supplemented with 10% fetal bovine serum, 1% Penicillin/Streptomycin, and 0.1% Fungin. DAY 0: Cells are plated into sterile 96-well plates (Corning Costar 96-well) at a concentration of 500 cells/well using a Multichannel pipettor. Then, assay plates are incubated overnight in a 37° C. 5% CO2 incubator. DAY 1: Compounds are prepared as 50 mM stocks in dimethyl sulfoxide (DMSO) and stored protected from light at room temperature (RT) until use. Prior to compound addition, a two-fold serial dilution of compound stock solutions is performed in DMSO from 30 mM to 0.117 mM in a 96-well Master plate. Vehicle control wells contain DMSO. 97 μL of media is added to each well of a new 96-well plate (Daughter plate) and 3 μL of drug solution from Master plate is added to corresponding wells in the Daughter plate resulting in a 3× plate. Three replicate dilution curves of each compound are run on each assay plate. The final concentration of compounds ranges from 300 μM to 1.171 μM (9-point, 2-fold dilution dose response curve), and the final DMSO concentration is 1%.
Assay plates are incubated for 120 hours at 37° C. in a humidified 5% CO2 incubator. DAY 5: Following incubation, cells are fixed with 4% paraformaldehyde and stained with Hoechst dye for nuclei visualization. Fixation, staining and washing is performed by using a Thermo Scientific Multidrop Combi. Images are acquired on a BioTek Cytation 5 Cell Imaging Multimode Reader and quantified using Cell Profiler image analysis software. Raw cell count data for test compounds are normalized to percent viability relative to the DMSO vehicle control.
Isogenic LN229 gliobastoma cells were maintained in Dulbecco's Modified Eagle Medium (DMEM) supplemented with 10% fetal bovine serum, 1% Penicillin/Streptomycin, and 0.1% Fungin. DAY 0: Cells were plated into sterile 96-well plates (Corning Costar 96-well) at a concentration of 500 cells/well using a Multichannel pipettor. Then, assay plates were incubated overnight in a 37° C. 5% CO2 incubator. DAY 1: Compounds were prepared as 50 mM stocks in dimethyl sulfoxide (DMSO) and stored protected from light at room temperature (RT) until use. Prior to compound addition, a two-fold serial dilution of compound stock solutions was performed in DMSO from 30 mM to 0.117 mM in a 96-well Master plate. Vehicle control wells contained DMSO. 97 μL of media was added to each well of a new 96-well plate (Daughter plate) and 3 μL of drug solution from Master plate was added to corresponding wells in the Daughter plate resulting in a 3× plate. Three replicate dilution curves of each compound were run on each assay plate. The final concentration of compounds ranged from 300 μM to 1.171 μM (9-point, 2-fold dilution dose response curve), and the final DMSO concentration was 1%.
Assay plates were incubated for 120 hours at 37° C. in a humidified 5% CO2 incubator. DAY 5: Following incubation, cells were fixed with 4% paraformaldehyde and stained with Hoechst dye for nuclei visualization. Fixation, staining and washing was performed by using a Thermo Scientific Multidrop Combi. Images were acquired on a BioTek Cytation 5 Cell Imaging Multimode Reader and quantified using Cell Profiler image analysis software. Raw cell count data for test compounds were normalized to percent viability relative to the DMSO vehicle control.

The next data set relates to A427. Briefly: Cell panel nuclear dye assay. It counts as cell-based. Particulars: Homo sapiens, A-427, 120 h, Lung (NSCLC), 5-day incubation. How it is done:
(§1) Cells were grown in RPMI1640, 10% FBS, 2 mM L-alanyl-L-glutamine, 1 mM Na pyruvate, or a special medium. Cells were seeded into 384-well plates and incubated in a humidified atmosphere of 5% CO2 at 37° C. Compound was added the day following cell seeding. At the same time, a time zero untreated cell plate was generated. After a 5-day incubation period, cells were fixed and stained to allow fluorescence imaging of nuclei.
(§2) Compounds were serially diluted in 2-fold steps from the highest test concentration specified, and assayed over 10 concentrations with a maximum assay concentration of 0.1% DMSO. Automated fluorescence microscopy was carried out using a Molecular Devices ImageXpress Micro XL high-content imager, and images were collected with a 4× objective. 16-bit TIFF images were acquired and analyzed with MetaXpress 5.1.0.41 software.
(§3) Cell proliferation was measured by the fluorescence intensity of an incorporated nuclear dye. The output is referred to as the relative cell count, where the measured nuclear intensity is transformed to percent of control (POC) using the following formula: […]
(§4) Cell count IC50 is the test compound concentration at 50% of maximal possible response. EC50 is the test compound concentration at the curve inflection point or half the effective response (parameter C of the fitted curve solution). GI50 is the concentration needed to reduce the observed growth by half (midway between the curve maximum and the time zero value). Activity area is an estimate of the integrated area above the curve. Activity area values range from 0-10, where a value of zero indicates no inhibition of proliferation at all concentrations, and a value of 10 indicates complete inhibition of proliferation at all concentrations. In rare instances, values <0 or >10 may be observed. In these instances, values <0 should be considered as equivalent to 0, whereas values >10 should be considered equivalent to 10.

Another data set relates to NCI-H69. As to the kind of experiment: Cell panel nuclear dye assay. Particulars: Homo sapiens, 120 h, Lung (SCLC), 5-day incubation. It counts as cell-based. How it is done:
as §1, §2, §3, §4

The next data set has as its system SCC-9. As to the kind of experiment: Cell panel nuclear dye assay. The settings on record: Homo sapiens, 120 h, Head & neck (squamous cell carcinoma, tongue), 5-day incubation. It counts as cell-based. On the procedure: as §1, §2, §3, §4
Another data set relates to SH-4. As to the kind of experiment: Cell panel nuclear dye assay. It counts as cell-based. The settings on record: Homo sapiens, 120 h, Melanoma, 5-day incubation. How it is done: as §1, §2, §3, §4
In a further data set the test system is T24. As to the kind of experiment: Cell panel nuclear dye assay. It counts as cell-based. Particulars: Homo sapiens, T-24, 120 h, Bladder, 5-day incubation. On the procedure: as §1, §2, §3, §4
The subject of another data set is WM-266-4. As to the kind of experiment: Cell panel nuclear dye assay. Format: cell-based. Particulars: Homo sapiens, 120 h, Melanoma, 5-day incubation. How it is done: as §1, §2, §3, §4
In data set [2] the test system is LN229 gliobastoma cells MGMT−/MMR+. Briefly: Anti-cancer assay, isogenic LN229 cells, nuclei count (Examples 43, 46). It counts as cell-based. The settings on record: Homo sapiens, LN-229; MGMT negative/MMR positive; Example 46, maximum concentration 200 μM; read-out: IC50 for causing the death of LN229 cells.
Another data set deals with dogs. Briefly: Animal model toxicity testing in dogs. The settings on record: tested doses exceeded those at which A1 caused 100% mortality.

Some results are limits rather than exact numbers.

On to `NC(=O)c1ncn2c(=O)n(CCOC(F)(F)F)nnc12` [Compound I-1, 4-Oxo-3-(2-(trifluoromethoxy)ethyl)-3,4-dihydroimidazo[5,1-d][1,2,3,5]tetrazine-8-carboxamide], for which the IC50 was greater than 100 µM in data set [1]; 30 to 70 µM with A427; no more than 30 µM in the data set with NCI-H69; 70 to 150 µM in the data set on SCC-9; 30 to 70 µM in the data set on SH-4; greater than 150 µM in the data set on T24. Besides, the IC50 is 30 to 70 µM with WM-266-4 and less than 20 µM in data set [2]. Moreover, the EC50 (usually the concentration that produces a half-maximal response) with A427 was 30 to 70 µM; with NCI-H69, no more than 30 µM; in the data set with SCC-9 it was 70 to 150 µM; in the data set on SH-4, 30 to 70 µM; in the data set with T24, 30 to 70 µM; in the data set with WM-266-4 it was 30 to 70 µM. Moreover, the adverse clinical signs entry in the data set on dogs is listed as “no adverse clinical signs were observed”.

Source of the values: patent publication US20250066371A1, “FLUOROALKOXYALKYLENE-DIHYDROIMIDAZO[5,1-D]TETRAZINONE COMPOUNDS AND RELATED COMPOUNDS AND THEIR USE IN TREATING MEDICAL CONDITIONS” (priority 2023, published 2025).
